Experimental data taken from patent US20230372569A1 (priority 2020, published 2023).

How the values were obtained:
[1] = acetic acid value given as TWA; cited from earlier work
[2] = tested on: Salmonella enterica; assay: Deactivation kinetics (Weibull model) with PAA, with and without UVC; type: cell-based
Source text: (§1) In most cases, especially for the PAA+UVC combination, they are nonlinear in coordinates log10[CFU]:-t. Formally it means that it was not a classical first-order reaction. The first-order model assumes that the cells and spores in a population have the same resistance and that the relationship between the decline in the number of survivors over the treatment time is linear. The model can be written as log10(N/N0)=−kt, where N0 is the initial number of cells (CFU/ml), N is the number of survivors after an exposure time t (CFU/ml), k is the rate parameter, and t is the treatment time (min). The D value, a typical index of inactivation kinetics, is the decimal reduction time in minutes (time required to kill 90% of the organisms).
(§2) The Weibull model assumes that the survival curve is a cumulative distribution of lethal effects. The cumulative form of the Weibull distribution is given by log10(N/N0)=[…], where b and n are the scale and shape parameters, respectively. When the shape parameter n is greater than or less than 1, the shape of the survival curve will present a shoulder or tailing, respectively. When n=1, the cumulative form of the Weibull distribution reduces to the first-order rate equation. For the Weibull model, the parameter td, which is analogous to the traditional D value, can be determined. td is the time required for d log reductions of the number of microorganisms and was calculated by the parameters b and n as shown in the equation
(§3) where d is the desired log reduction, b=k and 2.303 is coefficient due to the shift from base e logarithms to base 10 ones.

[3] = tested on: Candida albicans; assay: as above; type: cell-based
Source text: as §1, §2, §3

[4] = tested on: Staphylococcus aureus; assay: as above; type: cell-based
Source text: as §1, §2, §3

[5] = tested on: Pseudomonas aeruginosa; assay: as above; type: cell-based
Source text: as §1, §2, §3

[6] = tested on: Clostridium difficile ATCC43539; assay: Room decontamination test, inoculated dirty petri dishes (5% horse serum), two hours; type: cell-based; details: 5% w/w peracetic acid solution, 66 m^3 room
Procedure: A room of volume 66 m^3 (6 m×4.2 m (floor area)×2.6 m (height)) was used as a test room. The room was closed in the usual way, that a domestic, clinic or hospital room would be closed off by closing windows, doors and external vents and turning off any air-conditioning. However, the room was not hermetically sealed and a small amount of airflow was permissible. The temperature of the test room was ambient room temperature (between 20° C. and 25° C.).
A peracetic acid vapour/mist generator (nebulizer) was positioned along the smaller wall, at a height of about 1.21 m.
The peracetic acid vapour/mist generator utilised a commercially available 5% w/w peracetic acid solution. Peracetic acid is sold as an equilibrium mixture of hydrogen peroxide, acetic acid and water. 5% w/w Peracetic acid solution typically comprises 20-30% w/w hydrogen peroxide, 6-10% w/w acetic acid 4.5-5.4% w/w peracetic acid and the balance being water. In many embodiments of the present invention, the 5% w/w peracetic acid solution used comprised 24% w/w hydrogen peroxide, 7.5% w/w acetic acid 5% w/w peracetic acid and the balance being water.
The peracetic acid vapour/mist generator was also accompanied by a UV light that was located in the same housing. […] That is a known germicidal wavelength. The UV light shone upon all the exposed surfaces in the room. The UV lamp was 18 watts. The bulb used synthetic quartz to prevent escape of 185 nm ozone-forming radiation.
The UV-C light and peracetic acid vapour/mist generator could be operated independently or simultaneously, allowing for a direct comparison of the individual decontaminating agents with each other and with the combination.
Immediately before commencing sterilization, petri dishes containing inoculum were placed at three discrete locations within the room—one close to the UV/peracetic acid device (e.g. 80 cm from the device), one in the middle of the room and the other at the opposite end of the room. The dishes were also placed at differing heights. The petridishes were “dirty” and contained 5% horse serum. […] The number of microorganisms was counted. […]

SMILES | vapour safety level [1] [ppm] | D (decimal reduction time) [2] [min] | k (Weibull deactivation constant) [2] [h⁻¹] | n (Weibull shape parameter) [2] | D (decimal reduction time) [3] [min] | k (Weibull deactivation constant) [3] [h⁻¹] | n (Weibull shape parameter) [3] | D (decimal reduction time) [4] [min] | k (Weibull deactivation constant) [4] [h⁻¹] | n (Weibull shape parameter) [4] | D (decimal reduction time) [5] [min] | k (Weibull deactivation constant) [5] [h⁻¹] | n (Weibull shape parameter) [5] | Log reduction, Location 1 ([6]; Location 1 (close to device)) | Log reduction, Location 2 ([6]; Location 2 (middle of room)) | Log reduction, Location 3 ([6]; Location 3 (opposite end of room))
CC(=O)OO [Peracetic Acid only, Peracetic acid] | 0.17 | 70 | 0.2 | 1.24 | 37 | 0.45 | 1.25 | 223 | 0.055 | 1.13 | 168 | 0.052 | 1.5 | Log 0.71 log | log 0.97 | log 1.19
CC(=O)O [acetic acid] | 10 |  |  |  |  |  |  |  |  |  |  |  |  |  |  | 
